Laboratory results: EP0885006B1, “PHARMACEUTICAL COMPOSITION ENABLING TO INHIBIT CANCER METASTASIS FORMATION CONTAINING N-ACETYL-CYSTEINE AND DOXORUBICIN” (ZAMBON GROUP S.p.A., priority 1996, dated 1997)

System: B16-F10 murine melanoma cells
Assay: Experimental metastasis assay (lung metastases after i.v. injection of cancer cells)
Assay type: in vivo, female nude (CD-1)BR mice
Details: for reduction in the number of lung metastases with respect to untreated controls: DOX 5 mg/kg i.p. +24 h, NAC 2 g/kg p.o. daily
Protocol: DOX was used in the form of commercial injectable product, containing 10 mg of drug per vial (Adriblastina®, Farmitalia - Carlo Erba, Milano, Italia), to be dissolved in distilled water when injected. In the experiments wherein the oral administration was provided, NAC was used in the form of commercial product containing 200 mg of NAC per dosage (Fluimucil®, Zambon Italia, Vicenza), directly dissolved in the drinking water of mice. In the experiments wherein the parenteral (i.p. or i.v.) administration of NAC was foreseen, a 98% pure laboratory reagent (Sigma Chemical Co., St. Louis, MO, U.S.A.) was used, dissolved in a phosphate buffer (PBS), pH 7.4, and furtherly brought to neutrality with NaOH 0.1 N ("spontaneous" metastasis assays) or in NaCl 0.15 M, taking the solution to pH 7.0 (experimental metastasis assays).
A total of 385 adult mice was used (Charles River, Calco, Como, Italia) of which 196 female nude (CD-1)BR mice, aged 7 weeks, average weight of 25 g and 189 female C57BL/6 mice aged 6-8 weeks, average weight of 20 g, used in the experimental metastasis assays and in those of "spontaneous" metastases respectively. The (CD-1)BR mice were housed in sterile cages with filtering cover, in a number of 3 animals per cage, at a room temperature of 26-28°C, with a relative humidity of 55%, a ventilation accounting for 12-15 air/h renewals and a 12 hours day/night cycle; the C57BL/6 mice were stabulated in a number of 5 animals per cage, at a temperature of 25-27°C, with a relative humidity of 50% and a 12 hours day/night cycle. The (CD-1)BR mice received a special diet sterilized under vacuum (Mucedola S.r.L, Settimo Milanese, Milano, Italia) and sterilized drinking water; the C57BL/6 mice received a standard rodent diet (MIL Topi e Ratti, Morini, S. Polo d'Enza, Reggio Emilia, Italia) and drinking water ad libitum throughout the duration of the experiments. Within the experiments wherein the sacrifice of mice was foreseen at a scheduled time, killing was carried out by means of ethyl ether anaesthesia and subsequent cervical dislocation. The stabulation and all the animal treatments were carried out in accordance with the national and Community guidelines (D.L. 27.01.1992 N. 116; 86/609/EEC Directive).
In this kind of assay cancer cells were injected in the lateral tail vein, in order to avoid the formation of primary tumors and directly provide the spread of metastases in the lungs. B16-F10 murine melanoma cells were used, resuspended in serum-free Eagle's MEM medium, and injected i.v. in a volume of 100 µl (5 x 10^4 cells/mouse). As reported in Table 1, wherein also the number of mice included in each experimental group is indicated, 4 groups were always involved in each experiment, namely a control group (either untreated mice or treated with NaCl 0.15M), a group of mice treated with DOX only, a group of mice treated with NAC only and a group of mice treated with the two combined drugs.
In particular, in experiment #1 DOX was injected in a single dose (5 mg/kg body weight) by i.p. route 24 hours after injection of cancer cells, whereas NAC was administered every day with drinking water, at a calculated dose of 2 g/kg body weight, starting 3 days before injection of cancer cells and continuing throughout the duration of the experiment.
In experiment #2 DOX was injected in a single dose (10 mg/kg body weight) by i.v. route 3 days after injection of cancer cells, whereas NAC was administered daily by i.p. route (1 g/kg body weight), starting 8 hours before injection of cancer cells and continuing for 8 days.
In experiment #3 both DOX and NAC were injected by i.v. route 24 hours after injection of cancer cells, […]; in the combined treatment therefore the two drugs were injected after being mixed into the same syringe.
In experiment #4, wherein the control and DOX groups were the same as experiment #3, NAC was injected by i.v. route together with cancer cells, dissolved in the culture medium at a concentration of 10 mM. […]

[1] = experiment #1, DOX 5 mg/kg i.p. +24h, NAC 2 g/kg p.o. -3/+25 days, DOX+NAC same doses, killed at 25 days
[2] = experiment #1, combined same doses
[3] = experiment #2, DOX 10 mg/kg i.v. +3 days, NAC 1 g/kg i.p. -8 h/+8 days, DOX+NAC same doses, killed at 29 days
[4] = experiment #2, DOX 10 mg/kg i.v. +3 days, NAC 1 g/kg i.p. daily -8 h/+8 days, combined same doses
[5] = experiment #3, DOX 1 mg/kg i.v. +24 h, NAC 6.4 mg/kg i.v. +24 h, combined in the same injection
[6] = experiment #3, DOX 1 mg/kg i.v. +24 h, NAC 6,4 mg/kg i.v. +24 h, DOX+NAC mixed in the same syringe, killed at 27 days
[7] = experiment #4, DOX 1 mg/kg i.v. +24 h, NAC 10 mM in cancer cells culture medium, combined same doses
[8] = experiment #4, DOX 1 mg/kg i.v. +24 h, NAC 10 mM in culture medium of the injected cancer cells, DOX+NAC same doses, killed at 27 days
[9] = experiment #2, NAC 1 g/kg i.p. daily -8 h/+8 days

## COc1cccc2c1C(=O)c1c(O)c3c(c(O)c1C2=O)C[C@@](O)(C(=O)CO)C[C@@H]3O[C@H]1C[C@H](N)[C@H](O)[C@H](C)O1 [DOX, Doxorubicin]
[1]
  Lung metastases No. (mean ± ES): 13.1 ± 11.6 No.
  Mice with metastases (No.) 0: 2 No.
  Mice with metastases (No.) 1-10: 4 No.
  Mice with metastases (No.) 11-50: 5 No.
  Mice with metastases (No.) ≥51: 0 No.
[2]
  reduction in the number of lung metastases with respect to untreated controls: 4.1 fold
[3]
  Lung metastases No. (mean ± ES): 0.7 ± 0.3 No.
  Mice with metastases (No.) 0: 10 No.
  Mice with metastases (No.) 1-10: 5 No.
  Mice with metastases (No.) 11-50: 0 No.
  Mice with metastases (No.) ≥51: 0 No.
[4]
  reduction in the number of lung metastases with respect to controls: 17.4 fold
Experiment #2, DOX 10 mg/kg i.v. +3 days, NAC 1 g/kg i.p. daily, controls 66.7%
  frequency of mice affected by metastases: 33.3%
[5]
  reduction in the number of lung metastases with respect to controls: 1.3 fold
[6]
  Lung metastases No. (mean ± ES): 29.2 ± 13.7 No.
  Mice with metastases (No.) 0: 3 No.
  Mice with metastases (No.) 1-10: 5 No.
  Mice with metastases (No.) 11-50: 0 No.
  Mice with metastases (No.) ≥51: 3 No.
[7]
  reduction in the number of lung metastases with respect to controls: 1.3 fold
[8]
  Lung metastases No. (mean ± ES): 29.2 ± 13.7 No.
  Mice with metastases (No.) 0: 3 No.
  Mice with metastases (No.) 1-10: 5 No.
  Mice with metastases (No.) 11-50: 0 No.
  Mice with metastases (No.) ≥51: 3 No.
Experiments #3 and #4, DOX 1 mg/kg i.v. +24 h
  modulating the induction of lung metastases (effect in words): almost ineffective at all

## CC(=O)N[C@@H](CS)C(=O)O [NAC, N-acetyl-cysteine]
[1]
  Lung metastases No. (mean ± ES): 42.1 ± 15.8 No.
  Mice with metastases (No.) 0: 0 No.
  Mice with metastases (No.) 1-10: 3 No.
  Mice with metastases (No.) 11-50: 7 No.
  Mice with metastases (No.) ≥51: 2 No.
[2]
  reduction in the number of lung metastases with respect to untreated controls: 1.3 fold
[3]
  Lung metastases No. (mean ± ES): 25.1 ± 10.2 No.
  Mice with metastases (No.) 0: 5 No.
  Mice with metastases (No.) 1-10: 4 No.
  Mice with metastases (No.) 11-50: 3 No.
  Mice with metastases (No.) ≥51: 3 No.
[4]
  reduction in the number of lung metastases with respect to controls: 0.5 fold
[9]
  frequency of animals with metastases (effect in words): did not affect
  multiplicity of lung metastases (effect in words): even increased their multiplicity, but not to a significant extent
[5]
  reduction in the number of lung metastases with respect to controls: 2.8 fold
[6]
  Lung metastases No. (mean ± ES): 13.1 ± 8.9 No.
  Mice with metastases (No.) 0: 5 No.
  Mice with metastases (No.) 1-10: 2 No.
  Mice with metastases (No.) 11-50: 3 No.
  Mice with metastases (No.) ≥51: 1 No.
[7]
  reduction in the number of lung metastases with respect to controls: 14.7 fold
[8]
  Lung metastases No. (mean ± ES): 2.5 ± 0.7 No.
  Mice with metastases (No.) 0: 4 No.
  Mice with metastases (No.) 1-10: 7 No.
  Mice with metastases (No.) 11-50: 0 No.
  Mice with metastases (No.) ≥51: 0 No.
